# Measured values reported in US7772260B2, “Imidazo[2,1-b]-1,3,4-thiadiazole sulfonamides” (Aegera Therapeutics Inc., priority 2001, dated 2010).
# Entries after “also recorded” stand apart in the source; their conditions may differ.
# Assays:
# sciatic nerve = test: Sciatic nerve crush injury model; format: in vivo, Sprague Dawley rats
# Text: The sciatic nerve crush model is a representative model of axonal repair and regeneration. The sciatic nerve is physically crushed with forceps at the mid-thigh; only the right leg is injured, the left leg serving as a control. The axons die from the crush point to their point of innervation. Functional loss of the axons is rapidly observed as the animals drag their right leg and the toes of the right leg no longer spread. Recovery is observed in approximately 28 days as the animals regain use of their right leg. More quantitative measurements of recovery include toe spread measurements between the digits 1 and 5 and digits 2 and 4, gait analysis and electrical conductivity from the toes to the injury site (see Example 161). Male Sprague Dawley rats were anaesthetized (halothane and buprenorphine) and the right hind leg was blunt dissected to expose the sciatic nerve at mid-thigh. The nerve was crushed twice for a total of 30 seconds using No.7 Dumont jeweller's forceps. The incision is sutured and the animals are allowed to recover for 28 days. Functional recovery was measured by gait, nerve conductance and toe spread measurements between digits 1 and 5 and digits 2 and 4.
# [1] = tested on: human lung carcinoma cells (H460); test: Co-treatment of H460 cell line with Taxol and compound 1; format: cell-based; details: Taxol™ (50 nM) + compound at 5, 10, 20 uM; Taxol™ and/or cisplatin
# Protocol: H460 and OV2008 cells were plated and incubated for 48 hours. Compound 1 and/or compound 1 and Taxol™ were added. Viability was determined after 24 hours, staining with MTT (Promega).
# FIG. 3 illustrates the co-treatment of H460 and OV 2008 cell lines with Taxol™ and compound 1. H460 lung carcinoma and OV2008 ovarian carcinoma cells were treated with Taxol™ (50 nM) and/or Taxol™ (50 nM)+compound 1 (noted as AEG 03482) at levels of 5, 10, and 20 uM.
# Sprague Dawley rats = format: in vivo
# Protocol: Taxol™ commonly causes dose dependent peripheral neuropathies during cancer treatment. […] All of the Taxol™ treated animals developed peripheral neuropathies, characterized by ‘tip toe walking’. The extent of this neuropathy was analyzed by quantifying the refracted light captured by a video camera as the animals walked over a glass plate.
# Adult Sprague Dawley rats were treated with Taxol™ (IP, 9 mg/kg in Cremophor EL and ethanol) twice weekly for 3 weeks (J. Neuro-Oncology (1999) 41: 107-116). Compound was administered I hour prior to Taxol™ treatment (IP, 1, 5 and 10 mg/kg in hydroxypropyl-β-cyclodextrin). Taxol™ treated control animals were treated with saline solution at the same time of Compound treated animals. Non-treated control animals were treated with saline solution as above. Weight gain was measured every second day, starting at Day 1. Gait analysis was measured by quantifying the refracted light captured by a video camera as the animals walked over a glass plate, 2 days after the final Taxol™ treatment (Physiology and Behavior (1994), 55(4): 723-726; Med. Sci. Res. (1988) 16: 901-902). […] H/M wave recovery was analyzed using standard procedures 2 days after the final Taxol™ treatment (Muscle Nerve (1998) 21: 1405-1413; Annals of Neurology (1998) 43 (1): 46-55).
# Male Spraugue Dawley rats were treated with 50% HPDC vehicle (veh/veh), compound I dissolved in 50% HPDC at 1, 5, or 10 mg/kg (veh/1, veh/5, veh/10, respectively), or Taxol™ (9 mg/kg)+compound 1 dissolved in 50% HPDC at 1, 5, and 10 mg/kg (Tax/1, Tax/5, Tax/10) according to the dosing regime described in Example 160. Weight measurements were made ever other day.
# Two days after the completion of drug treatments animal walking gait was analyzed according to a) total imprint area, and b) total number of contact points.
# FIG. 6 illustrates the effect of Compound 1 on H-reflex amplitude, a measurement of H/M wave disturbance induced by Taxol™. Two days after the completion of drug treatments, the dorsal root ganglia and attached nerves were dissected bilaterally from L4 and L5 and their H/M wave conductance measured.
# [2] = 5 mg/kg with Taxol™ (9 mg/kg), bi-weekly
compound,measurement,setting,value
"NS(=O)(=O)c1nn2cc(-c3ccccc3)nc2s1 [Compound 1, 6-Phenylimidazo[2,1-b]-1,3,4-thiadiazole-2-sulfonamide]",functional recovery after sciatic nerve crush,sciatic nerve; 1 and 10 mg/kg,improved recovery
same,recovery in toe spread area (inner toe spread),sciatic nerve; versus vehicle control,induced increased recovery
same,protection of H460 cells from Taxol™ induced apoptosis,[1],no protection; also recorded: did not protect
same,loss in foot pad contact,Sprague Dawley rats; [2],23%
same,weight gain as compared to control,Sprague Dawley rats; [2],normal weight gain
same,H/M wave disturbance induced by Taxol™ (H-reflex amplitude),Sprague Dawley rats; two days after completion of drug treatments,caused a reversal in H/M wave disturbance
same,Taxol™ induced gait disturbance,"Sprague Dawley rats; two days after completion of drug treatments, total imprint area, number of contact points",prevented Taxol™ induced gait disturbance
